Data reported in article PMC10259201, “Mercapto-pyrimidines are reversible covalent inhibitors of the papain-like protease (PLpro) and inhibit SARS-CoV-2 (SCoV-2) replication” (RSC Advances, 2023).
“And” between values parts separate entries of the source, which are not always exact repeats. Equal entries are not always repeated. “Also recorded” adds a separate entry of the source. Where two headings read alike, the source gives them in different places.

What was measured:
SCoV PLpro = test system: SCoV PLpro; parameters: method as in PMID 18852458; details: cited from earlier work
PLpro from SCoV-2 [1] = test system: PLpro from SCoV-2; parameters: method as in PMID 33531496, PMID 32895623, PMID 33473130, PMID 34341772, PMID 32845033; details: cited from earlier work
SCoV-2 [2] = test system: SCoV-2; parameters: method as in PMID 33531496, PMID 32895623, PMID 33473130, PMID 34341772, PMID 32845033; details: cited from earlier work
SCoV-2 [3] = test system: SCoV-2; parameters: method as in PMID 33531496, PMID 32895623, PMID 33473130, PMID 34341772, PMID 32845033; details: oral delivery; cited from earlier work
PLpro from SCoV-2 [4] = molecular target: PLpro from SCoV-2 (Severe acute respiratory syndrome coronavirus 2, UniProt P0DTD1); assay: Fluorescent PLpro inhibition assay (RLRGG-AMC substrate), dose response; assay type: biochemical, SARS-CoV-2
SARS-CoV-2 USA-WA1/2020 = assay: SCoV-2 USA-WA1/2020 antiviral assay with plaque forming readout in Vero E6 cells; assay type: cell-based
PLpro [5] = molecular target: T1, PLpro (Severe acute respiratory syndrome coronavirus 2, UniProt P0DTD1); assay: Surface plasmon resonance with immobilized His-tagged PLpro; assay type: binding, SARS-CoV-2
PLpro [6] = molecular target: T1, PLpro; assay: Time dependent PLpro inhibition assay (pre-incubation); assay type: biochemical, SARS-CoV-2
From the text: Compound 5 contains a mercaptopyrimidine fragment, which can potentially undergo addition–elimination reactions with nucleophiles. For example, Murugesan et al. recently identified a mercaptopyrimidine based inhibitor of tuberculosis cell growth, which reacted with glutathione under physiological conditions.[27,35] PLpro is a cysteine protease with a nucleophilic cysteine in its active site, which could potentially react with compound 5via an additional elimination reaction. We performed a time dependent PLpro inhibition assay with compound 5 to determine if pre-incubation time lowered its IC50. Pre-incubation time lowers the IC50 of covalent inhibitors because it gives more time for the protein to react with the inhibitor. In contrast, pre-incubation time frequently has no effect on the IC50 of non-covalent inhibitors because their koffs are generally on the timescale of second to minutes.
The PLpro protein (50 nM) was preincubated with different concentration of inhibitor (0, 1, 2.5, 5, 10 and 20 μM) for different time points (0, 5, 10, 20, 35, 95, 125, 185 minutes). The substrate (50 μM) was added and measured the fluorescence. The data was analyzed using Enzyme – inhibition, GraphPad Prism.

SARS-CoV-2-NLuc = assay type: cell-based; details: data not shown
[7] = Cytotoxicity assay (resazurin); assay type: cell-based; details: African green monkey, Vero CCL-81 cells, Vero CCL-81, resazurin, read-out: cell viability
Vero CCL-81 cells = assay: Cytotoxicity assay (resazurin); assay type: cell-based; details: 50 μM, Vero CCL-81, resazurin
SCoV2 PLpro = SCoV2 PLpro (Severe acute respiratory syndrome coronavirus 2, UniProt P0DTD1); assay: Gel-based activity based protein profiling (IA-rhodamine / NHS-rhodamine); assay type: biochemical, SARS-CoV-2; details: pulse chase
Procedure: We performed activity-based profiling experiments to determine if compound 5 covalently reacted with the cysteines or lysines of PLpro.[36] Iodoacetamide-rhodamine was used as the probe for cysteine reactivity analysis and NHS-rhodamine was the probe for investigating lysine reactivity on PLpro. A traditional pulse chase experiment was performed with PLpro and the rhodamine dyes, where PLpro was first incubated with compound 5 and then incubated with iodoacetamide-rhodamine or NHS-rhodamine. After the dye incubation, PLpro was run on a protein gel and imaged via fluorescence. […] The other thiols in PLpro are either disulfides, which are unreactive to nucleophiles, or zinc chelated and have diminished nucleophilicity.
For gel-based ABPP experiments with PLpro, pure SCoV2 PLpro protein (0.1 μg per sample for IA-rhodamine and 0.05 μg for NHS-rhodamine) was pretreated with either DMSO vehicle or desired dosage of compound 5 at 37 °C for 1 hour in 25 μL PBS. […] Probe-labeled proteins were analyzed by in-gel rhodamine fluorescence using a ChemiDoc MP (Bio-Rad). Protein loading was assessed by Silver Staining.

PLpro [8] = molecular target: T1, PLpro; assay: Jump dilution assay (reversibility of PLpro inhibition); assay type: biochemical, SARS-CoV-2
Procedure: To investigate if compound 5 constitutes a novel class of RCI, we performed a jump dilution assay with PLpro, compound 5 and beta-mercaptoethanol (BMe). PLpro and compound 5 were mixed and allowed to react, diluted 25-fold in the presence of 5 mM BMe[38,39] and the inhibition of PLpro was measured.
BMe is not a biological nucleophile, and we re-did the jump dilution assay in the presence of either 5 mM reduced glutathione (GSH) or 200 μM cysteine (their physiological concentrations)[40] to determine if the PLpro-compound 5 adduct would rapidly decompose in cells. […] In contrast, smaller thiols such as BMe and cysteine can apparently access the PLpro active site and can displace compound 5. […] In addition, the mercaptopryimidine ring can function as a size selective filter for thiols and this unique feature should allow it to find numerous applications in drug discovery.
PLpro was mixed with compound 5 at the 10-fold higher concentration of IC50 (10 × IC50) and allowed to form protein-inhibitor complex at saturating conditions at room temperature. The complex was then rapidly diluted in a buffer supplemented with 5 mM reduced glutathione, 5 mM beta-mercaptoethanol (BMe), 200 μM cysteine to bring the compound's concentration of 1/10 × IC50. After 5 minutes of dilution, the substrate was added and incubated for 30 minutes. The fluorescent intensities were read at the excitation wavelength of 360 nm and emission wavelength of 460 nm.

[9] = IC50 (PLpro inhibition, HTS hits), HTS hit dose response, 10 point 1:2 dilution from 40 μM, 50 nM PLpro, 50 μM RLRGG-AMC
[10] = IC50 (PLpro inhibition, compound 5 and derivatives), hit exploration / SAR, compounds purchased from ChemDiv

For `Cc1ccc(N)cc1C(=O)N[C@H](C)c1cccc2ccccc12` [GRL0617], the “IC50 (SCoV PLpro)” value (SCoV PLpro) is listed as “low micromolar range”, the “IC50 (PLpro from SCoV-2)” value (PLpro from SCoV-2 [1]) is listed as “micromolar range” and the “IC50 (viral replication in cells)” value (SCoV-2 [2]) is listed as “micromolar range”. The “antiviral activity against SCoV-2 in mice” value (SCoV-2 [3]) was “moderate antiviral activity”.
With `Cc1ccc(-n2c(N)c(C(=O)N3CCCCC3)sc2=S)cc1` [Compound 10] the IC50 (PLpro from SCoV-2 [4]; [9]) was 8.33 µM.
With `CCSc1nc2sc3c(c2c(=O)n1CC)CCc1ccccc1-3` [Compound 5B] the IC50 (PLpro from SCoV-2 [4]; hit exploration / SAR, compounds purchased from ChemDiv, read-out: IC50 (PLpro inhibition, compound 5 and derivatives)) was 5 µM and 4.99 µM and the “antiviral activity in Vero E6 cells by plaque assay” value (SARS-CoV-2 USA-WA1/2020) was “did not have any antiviral activity; also recorded: do not exhibit antiviral activity”.
Compound `Cc1nn(-c2ccccc2)c(OC(=O)C(C)C)c1Sc1ccccc1` [Compound 1] has an IC50 (PLpro from SCoV-2 [4]; [9]) of 0.815 µM.
With `CCC(CC)COC(=O)[C@H](C)N[P@](=O)(OC[C@H]1O[C@@](C#N)(c2ccc3c(N)ncnn23)[C@H](O)[C@@H]1O)Oc1ccccc1` [Remdesivir, reference compound] the “antiviral activity, positive control in plaque forming assay” value (SARS-CoV-2 USA-WA1/2020; 100 μM) was “potently inhibited the virus”.
In the case of `CN(C)C(S)=Nc1nc2ccccc2s1` [Compound 8], the IC50 (PLpro from SCoV-2 [4]; [9]) is reported as 4.76 µM.
`CNC(=O)c1sc(=S)n(-c2cc(Cl)ccc2OC)c1N` [Compound 2] showed an IC50 (PLpro from SCoV-2 [4]; [9]) of 0.985 µM.
For `C=CCSc1nc2sc3c(c2c(=O)n1CC)CCc1ccccc1-3` [Compound 5E], the IC50 (PLpro from SCoV-2 [4]; [10]) was 0.9 µM and 0.853 µM and 0.85 µM, the “IC50 relative to compound 5 (times lower / fold higher potency)” value (PLpro from SCoV-2 [4]; compared with compound 5) was “approximately 5 fold” and the “antiviral activity in Vero E6 cells by plaque assay” value (SARS-CoV-2 USA-WA1/2020) was “did not have any antiviral activity; also recorded: do not exhibit antiviral activity”. The Kd (PLpro [5]) was 8.3 µM.
Compound `Cc1nnc(Sc2nc(Sc3nnc(C)s3)nc(Sc3nnc(C)s3)n2)s1` [Compound 4] has an IC50 (PLpro from SCoV-2 [4]; [9]) of 1.42 µM.
For `CCCSc1nc2sc3c(c2c(=O)n1CC)CCc1ccccc1-3` [Compound 5], the IC50 (PLpro from SCoV-2 [4]; [9]) was 1.59 µM, the IC50 (PLpro from SCoV-2 [4]; [10]) was 5.1 µM and 5.19 µM and 5 µM and the IC50 (PLpro [6]; 3 hour pre-incubation with PLpro, read-out: IC50 of PLpro inhibition after 3 hour pre-incubation) was 0.9 µM. For the same compound, the “decrease in IC50 after pre-incubation” value (PLpro [6]; 3 hours pre-incubation vs none) was 10 fold, the IC50 (PLpro [6]; no pre-incubation, read-out: IC50 of PLpro inhibition, no pre-incubation) was 9 µM and the “reduction of NLuc levels of infected cells” value (SARS-CoV-2-NLuc; 10 μM) was 3 fold. For the same compound, the “reduction of NLuc levels of infected cells” value (SARS-CoV-2-NLuc; 20 μM) was 7 fold, the “reduction in infectious virus levels (plaque forming assay)” value (SARS-CoV-2 USA-WA1/2020; 10 μM) was 3 fold and the “reduction in infectious virus levels (plaque forming assay)” value (SARS-CoV-2 USA-WA1/2020; 20 μM) was 22 fold. For the same compound, the viability at 72 h, 1 µM ([7]; 1 μM) was > 85%, the viability at 72 h, 10 µM ([7]; 10 μM) was > 85% and the viability at 72 h, 25 µM ([7]; 25 μM) was > 85%. The toxicity (Vero CCL-81 cells) was “significant toxicity”, the “cysteine reactivity: blocking of iodoacetamide-rhodamine labelling of PLpro” value (SCoV2 PLpro; IA-rhodamine probe) was “prevents PLpro from reacting with iodo-acetamide; also recorded: able to prevent PLpro from reacting with iodo-acetamide” and the “lysine reactivity: blocking of NHS-rhodamine labelling of PLpro” value (SCoV2 PLpro; NHS-rhodamine probe) was “unable to prevent PLpro from reacting with NHS-rhodamine”. The “recovery of PLpro activity after dilution” value (from here on “recovery of PLpro activity”) (PLpro [8]; 200 μM cysteine) was “can regenerate active PLpro; also recorded: recovered the activity of PLpro”, the “recovery of PLpro activity” value (PLpro [8]; 5 mM reduced glutathione (GSH)) was “cannot; also recorded: did not” and the “recovery of PLpro activity” value (PLpro [8]; diluted 25-fold with 5 mM BMe, 5 minutes) was 90%. For the same compound, the “recovery of PLpro activity” value (PLpro [8]; dilution in PBS) was “still inhibits PLpro after dilution with PBS”, the “recovery of PLpro activity” value (PLpro [8]; dilution in PBS, listed as compound 5) was “no effect on the activity of PLpro” and the Kd (PLpro [5]; SPR, His-tagged PLpro on Ni-NTA chip, read-out: binding constant KD) was 21 µM.
`CCOC(=O)c1sc(=S)n(-c2cc(OC)ccc2OC)c1N` [Compound 7] showed an IC50 (PLpro from SCoV-2 [4]; [9]) of 3.87 µM.
`CCn1c(N)c(C(=O)Nc2ccccc2OC)sc1=S` [Compound 6] showed an IC50 (PLpro from SCoV-2 [4]; [9]) of 2.73 µM.
`COC(=O)c1ccc([C@@H]2Nc3c(Cl)cccc3[C@@H]3C=CC[C@@H]32)cc1` [Compound 9] showed an IC50 (PLpro from SCoV-2 [4]; [9]) of 7.94 µM.
